Source: patent US20060025414A1, “Poly-heterocyclic compounds and their use as metabotropic glutamate receptor antagonists” (AstraZeneca AB, priority 2004, published 2006)

Target: T1, human mGluR5d (Homo sapiens, UniProt P41594)
T1 construct: expressed in transfected cells
Assay: FLIPR assay of [Ca2+]i mobilization (Group I receptor antagonist activity)
Format: cell-based
Conditions: cells expressing human mGluR5d; antagonist block of agonist challenge
Experimental: For FLIPR analysis, cells expressing human mGluR5d as described in WO97/05252 were seeded on collagen coated clear bottom 96-well plates with black sides and analysis of [Ca^2+]i mobilization was done 24 h after seeding.
FLIPR experiments were done using a laser setting of 0.800 W and a 0.4 second CCD camera shutter speed. Each FLIPR experiment was initiated with 160 μl of buffer present in each well of the cell plate. After each addition of the compound, the fluorescence signal was sampled 50 times at 1 second intervals followed by 3 samples at 5 second intervals. Responses were measured as the peak height of the response within the sample period. EC50 and IC50 determinations were made from data obtained from 8-point concentration response curves (CRC) performed in duplicate. Agonist CRC were generated by scaling all responses to the maximal response observed for the plate. […]
FLIPR experiments were done using a laser setting of 0.800 W and a 0.4 second CCD camera shutter speed with excitation and emission wavelengths of 488 nm and 562 nm, respectively. […] After each addition the fluorescence signal was sampled 50 times at 1 second intervals followed by 3 samples at 5 second intervals. Responses were measured as the peak height of the response within the sample period. […]

T1 sequence (P41594 21-942 isoform P41594-3 limits assumed): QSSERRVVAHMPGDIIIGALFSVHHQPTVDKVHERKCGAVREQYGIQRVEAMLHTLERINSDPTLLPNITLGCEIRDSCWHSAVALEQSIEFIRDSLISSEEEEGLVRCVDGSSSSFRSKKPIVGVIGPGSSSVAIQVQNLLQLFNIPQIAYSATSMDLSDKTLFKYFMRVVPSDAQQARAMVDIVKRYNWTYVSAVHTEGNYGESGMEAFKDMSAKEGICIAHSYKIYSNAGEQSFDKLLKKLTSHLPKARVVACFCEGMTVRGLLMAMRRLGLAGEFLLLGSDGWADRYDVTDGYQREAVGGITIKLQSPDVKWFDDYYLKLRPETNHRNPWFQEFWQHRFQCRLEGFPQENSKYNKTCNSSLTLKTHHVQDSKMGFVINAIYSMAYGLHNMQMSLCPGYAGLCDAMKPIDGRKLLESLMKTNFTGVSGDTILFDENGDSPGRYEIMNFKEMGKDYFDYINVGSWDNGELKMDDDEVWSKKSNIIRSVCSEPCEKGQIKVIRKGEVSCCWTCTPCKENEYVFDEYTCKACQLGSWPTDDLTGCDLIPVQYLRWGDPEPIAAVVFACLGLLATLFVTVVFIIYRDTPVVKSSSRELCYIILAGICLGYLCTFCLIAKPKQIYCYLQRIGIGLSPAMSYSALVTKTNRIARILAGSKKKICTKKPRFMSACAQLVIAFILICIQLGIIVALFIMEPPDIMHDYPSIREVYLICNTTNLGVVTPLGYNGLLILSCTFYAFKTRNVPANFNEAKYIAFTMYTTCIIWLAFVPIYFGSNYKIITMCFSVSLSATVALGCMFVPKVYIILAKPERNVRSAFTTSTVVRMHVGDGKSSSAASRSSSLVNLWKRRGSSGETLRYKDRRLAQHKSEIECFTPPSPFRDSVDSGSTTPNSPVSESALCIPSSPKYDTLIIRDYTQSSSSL

Row | IC50 | SMILES
1 | 199 nM | Cn1c(-c2ccc(OC(F)F)cc2)nnc1N1CCOCC1c1nc(-c2cccc(Cl)c2)no1 (centres unmarked) [3-[3-(3-Chloro-phenyl)-[1,2,4]oxadiazol-5-yl]-4-[5-(4-difluoromethoxy-phenyl)-4-methyl-4H-[1,2,4]triazol-3-yl]-morpholine]
2 | 40 nM | Cn1c(-c2ccncc2)nnc1N1CCCCC1c1nnn(-c2cccc(Cl)c2)n1 (centres unmarked) [4-(5-{2-[2-(3-chlorophenyl)-2H-tetrazol-5-yl]piperidin-1-yl}-4-methyl-4H-1,2,4-triazol-3-yl)pyridine]
